Experimental data: ChEMBL document CHEMBL5032491, “New Dibenzoquinoxalines Inhibit Triple-Negative Breast Cancer Growth by Dual Targeting of Topoisomerase 1 and the c-MYC G-Quadruplex” (J Med Chem, 2021)
Values belong to the compound of their own block, whether it stands above or below them. The source made the active and inactive calls. No cut-off for these calls is given here.

Legend:
[1] = test system: MDA-MB-231; assay: Antiproliferative activity against human MDA-MB-231 cells assessed as inhibition of cell growth incubated for 24 hrs by CCK8 assay; assay type: functional, cell-based; conditions: for IC50: MDA-MB-231, 24 h
[2] = molecular target: T1, DNA topoisomerase 1 (Homo sapiens) (UniProt P11387); assay: Inhibition of human topoisomerase 1 mediated relaxation of supercoiled pHOT1 DNA at 5 to 20 uM incubated for 30 mins by agarose gel electrophoresis; conditions: dose 5-20 µM
T1 sequence (whole entry): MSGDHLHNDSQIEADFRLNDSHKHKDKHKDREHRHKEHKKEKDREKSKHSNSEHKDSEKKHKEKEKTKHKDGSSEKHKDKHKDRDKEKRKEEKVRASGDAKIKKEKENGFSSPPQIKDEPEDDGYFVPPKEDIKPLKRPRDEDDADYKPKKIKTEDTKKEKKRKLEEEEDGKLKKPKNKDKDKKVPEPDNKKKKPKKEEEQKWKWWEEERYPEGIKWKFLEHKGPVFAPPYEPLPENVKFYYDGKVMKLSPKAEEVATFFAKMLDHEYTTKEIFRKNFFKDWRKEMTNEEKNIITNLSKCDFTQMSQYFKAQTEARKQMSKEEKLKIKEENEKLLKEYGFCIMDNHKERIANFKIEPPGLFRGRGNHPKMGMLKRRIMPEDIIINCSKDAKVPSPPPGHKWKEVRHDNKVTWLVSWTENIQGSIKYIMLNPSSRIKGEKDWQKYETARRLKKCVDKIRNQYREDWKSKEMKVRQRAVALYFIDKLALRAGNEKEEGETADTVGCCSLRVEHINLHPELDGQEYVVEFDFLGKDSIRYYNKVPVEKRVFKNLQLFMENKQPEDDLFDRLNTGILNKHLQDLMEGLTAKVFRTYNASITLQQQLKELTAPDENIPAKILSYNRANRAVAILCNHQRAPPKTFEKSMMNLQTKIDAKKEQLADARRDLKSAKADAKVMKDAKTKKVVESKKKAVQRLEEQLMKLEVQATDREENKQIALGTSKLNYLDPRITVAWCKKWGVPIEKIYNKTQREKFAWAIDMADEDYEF

[3] = test system: Quadruplex DNA; assay: Inhibition of c-myc G4-quadruplex DNA transcriptional activity in human MDA-MB-231 cells incubated for 24 hrs by RT-PCR analysis; assay type: cell-based
[4] = Antiproliferative activity against human BJ fibroplast assessed as inhibition of cell growth incubated for 24 hrs by CCK8 assay; conditions: Fibroblast
[5] = test system: MDA-MB-231; assay: Antiproliferative activity against human MDA-MB-231 cells assessed as inhibition in cell growth at 2.5 uM incubated for 24 hrs by CCK8 assay; assay type: functional, cell-based
[6] = test system: MDA-MB-231; assay: Inhibition of c-Myc gene transcription expression in human MDA-MB-231 cells at 0.5 to 2 uM incubated for 24 hrs by RT-PCR analysis; assay type: functional, cell-based; conditions: dose 0.5-2 µM
[7] = test system: MDA-MB-231; assay: Induction of cell cycle arrest in human MDA-MB-231 cells assessed as accumulation at S phase at 2 uM incubated for 24 hrs by flow cytometry (reference value: 19.2%); assay type: functional
[8] = test system: MDA-MB-231; assay: Induction of cell cycle arrest in human MDA-MB-231 cells assessed as accumulation at sub-G1 phase at 2 uM incubated for 24 hrs by flow cytometry (reference value: 2.8%); assay type: functional
[9] = test system: MDA-MB-231; assay: Antitumor activity against human MDA-MB-231 cells xenografted in BALB/c mouse assessed as tumor growth inhibition measured at 2.5 mg/kg, ip administered every other day for 20 days; assay type: functional; conditions: MDA-MB-231, ip, 480 h, time 20 day, read-out: TGI
[10] = test system: Calf thymus DNA; assay: Binding affinity to duplex calf thymus DNA assessed as dissociation constant by fluorescence spectroscopy; assay type: nucleic-acid assay, Bos taurus
[11] = test system: MDA-MB-231; assay: Induction of cell cycle arrest in human MDA-MB-231 cells assessed as accumulation at G2/M phase at 1 uM incubated for 24 hrs by flow cytometry (reference value: 20.4%); assay type: functional
[12] = test system: Calf thymus DNA; assay: Binding affinity to duplex calf thymus DNA assessed as dissociation constant; assay type: nucleic-acid assay, Bos taurus
[13] = test system: MDA-MB-231; assay: Inhibition of c-Myc protein expression in human MDA-MB-231 cells at 0.5 to 2 uM incubated for 24 hrs by Western blot analysis; assay type: functional, cell-based; conditions: dose 0.5-2 µM
[14] = test system: MDA-MB-231; assay: Induction of cell cycle arrest in human MDA-MB-231 cells assessed as accumulation at G0/G1 phase at 1 uM incubated for 24 hrs by flow cytometry (reference value: 56.6%); assay type: functional
[15] = test system: MDA-MB-231; assay: Inhibition of cell migration in human MDA-MB-231 cells incubated for 24 hrs by wound scrape assay; assay type: functional, cell-based
[16] = test system: MDA-MB-231; assay: Induction of cell cycle arrest in human MDA-MB-231 cells assessed as accumulation at G2/M phase at 0.5 uM incubated for 24 hrs by flow cytometry (reference value: 20.4%); assay type: functional
[17] = test system: MDA-MB-231; assay: Induction of cell cycle arrest in human MDA-MB-231 cells assessed as accumulation at S phase at 0.5 uM incubated for 24 hrs by flow cytometry (reference value: 19.2%); assay type: functional
[18] = test system: CA46; assay: Downregulation of EXON 1 transcription in human CA46 cells incubated for 24 hrs by RT-PCR analysis; assay type: functional, cell-based
[19] = test system: MDA-MB-231; assay: Inhibition of HRAS gene transcription expression in human MDA-MB-231 cells at 0.5 to 2 uM incubated for 24 hrs by RT-PCR analysis; assay type: functional, cell-based; conditions: dose 0.5-2 µM
[20] = test system: MDA-MB-231; assay: Inhibition of VEGF gene transcription expression in human MDA-MB-231 cells at 0.5 to 2 uM incubated for 24 hrs by RT-PCR analysis; assay type: functional, cell-based; conditions: dose 0.5-2 µM
[21] = molecular target: T1, DNA topoisomerase 1 (Homo sapiens); assay: Poison activity at human topoisomerase 1 assessed as formation of cleavage complex using pHOT-1 DNA as substrate incubated for 30 mins by agarose gel electrophoresis
[22] = test system: MDA-MB-231; assay: Inhibition of BCL-2 gene transcription expression in human MDA-MB-231 cells at 0.5 to 2 uM incubated for 24 hrs by RT-PCR analysis; assay type: functional, cell-based; conditions: dose 0.5-2 µM
[23] = test system: MDA-MB-231; assay: Antitumor activity against human MDA-MB-231 cells xenografted in BALB/c mouse assessed as tumor growth inhibition measured at 5 mg/kg, IP administered every other day for 20 days; assay type: functional; conditions: MDA-MB-231, ip, 480 h, time 20 day, read-out: TGI
[24] = test system: MDA-MB-231; assay: Induction of cell cycle arrest in human MDA-MB-231 cells assessed as accumulation at S phase at 1 uM incubated for 24 hrs by flow cytometry (reference value: 19.2%); assay type: functional
[25] = test system: Quadruplex DNA; assay: Binding affinity to c-myc G4-quadruplex DNA Pu22 (unknown origin) by NMR spectroscopy; assay type: nucleic-acid assay
[26] = test system: MDA-MB-231; assay: Induction of cell cycle arrest in human MDA-MB-231 cells assessed as accumulation at sub-G1 phase at 1 uM incubated for 24 hrs by flow cytometry (reference value: 2.8%); assay type: functional
[27] = test system: Quadruplex DNA; assay: Binding affinity to c-myc G4-quadruplex DNA (unknown origin) at 1 uM in presence of ct-DNA by fluorescence spectroscopy; assay type: nucleic-acid assay
[28] = test system: CA46; assay: Downregulation of c-MYC transcription expression in human CA46 cells incubated for 24 hrs by RT-PCR analysis; assay type: functional, cell-based
[29] = molecular target: Quadruplex DNA; assay: Binding affinity to c-myc G4-quadruplex DNA (unknown origin) assessed as dissociation constant by fluorescence spectroscopy; assay type: nucleic-acid assay
[30] = test system: MDA-MB-231; assay: Induction of cell cycle arrest in human MDA-MB-231 cells assessed as accumulation at G0/G1 phase at 2 uM incubated for 24 hrs by flow cytometry (reference value: 56.6%); assay type: functional
[31] = test system: MDA-MB-231; assay: Induction of cell cycle arrest in human MDA-MB-231 cells assessed as accumulation at sub-G1 phase at 0.5 uM incubated for 24 hrs by flow cytometry (reference value: 2.8%); assay type: functional
[32] = molecular target: T1, DNA topoisomerase 1 (Homo sapiens); assay: Inhibition of human topoisomerase 1 assessed as DNA intercalation at 1.2 to 10 uM using relaxed pHOT-1 DNA as substrate preincubated with DNA for 10 mins followed by enzyme addition and measured after 30 mins by agarose gel electrophoresis; conditions: dose 1.2-10 µM, time 40.0 min
[33] = test system: MDA-MB-231; assay: Induction of cell cycle arrest in human MDA-MB-231 cells assessed as accumulation at G0/G1 phase at 0.5 uM incubated for 24 hrs by flow cytometry (reference value: 56.6%); assay type: functional
[34] = test system: CA46; assay: Downregulation of EXON 2 transcription in human CA46 cells incubated for 24 hrs by RT-PCR analysis; assay type: functional, cell-based
[35] = Toxicity in human MDA-MB-231 cells xenografted BALB/c mouse assessed as body weight loss at 2.5 to 5 mg/kg, ip administered every other day for 20 days; assay type: organism-based; conditions: in vivo, 480 h, dose 2.5-5 mg/kg, time 20 day
[36] = test system: Quadruplex DNA; assay: Binding affinity to c-myc G4-quadruplex DNA (unknown origin) by UV-Vis spectrophotometric method; assay type: nucleic-acid assay
[37] = test system: MDA-MB-231; assay: Antitumor activity against human MDA-MB-231 cells xenografted in ip dosed BALB/c mouse assessed as tumor growth inhibition administered every other day for 20 days; assay type: functional, organism-based; conditions: dose 2.5-5 […], time 20.0 day
[38] = test system: MDA-MB-231; assay: Induction of DNA damage in human MDA-MB-231 cells assessed as increase in gammaH2AX incubated for 24 hrs by western blotting analysis; assay type: functional, cell-based
[39] = test system: Quadruplex DNA; assay: Stabilization of c-Myc G-quadruplex DNA (unknown origin ) assessed as increase in melting temperature at 6 uM by CD spectroscopy; assay type: nucleic-acid assay
[40] = test system: MDA-MB-231; assay: Anticlonogenic activity against human MDA-MB-231 cells assessed as inhibition of colony formation incubated for 7 days by crystal violet staining based assay; assay type: functional, cell-based; conditions: time 7.0 day
[41] = test system: MDA-MB-231; assay: Induction of cell cycle arrest in human MDA-MB-231 cells assessed as accumulation at G2/M phase at 2 uM incubated for 24 hrs by flow cytometry (reference value: 20.4%); assay type: functional

SMILES: CN1CCN(c2ccc3c(c2)c2cc(N4CCN(C)CC4)ccc2c2nc4cc5ccccc5cc4nc32)CC1
- IC50 [1]: 5400 nM

SMILES: COc1ccc2nc3c4ccc(N5CCN(C)CC5)cc4c4cc(N5CCN(C)CC5)ccc4c3nc2c1
- IC50 [4]: 5600 nM
- Activity [5]: Active
- inhibition [6]: Active
- Activity [7]: 16.6%
- Activity [8]: 20.2%
- inhibition in vivo at 2.5 mg/kg [9]: 52%
- Kd [10]: 12700 nM
- Activity [11]: 24.9%
- Kd [12]: 8300 nM
- inhibition [3]: Active
- inhibition [13]: inactive
- Activity [14]: 50%
- inhibition [15]: Active
- Activity [16]: 21.7%
- Activity [17]: 20.3%
- Activity [18]: Active
- inhibition [19]: inactive
- inhibition [20]: inactive
- Activity [21]: inactive
- inhibition [22]: inactive
- inhibition in vivo at 5 mg/kg [23]: 66%
- Activity [24]: 20.4%
- Activity [25]: Active
- Activity [26]: 4.7%
- Activity [27]: Active
- Activity [28]: inactive
- Kd [29]: 600 nM
- Activity [30]: 38.9%
- Activity [31]: 3.1%
- inhibition [32]: Active
- Activity [33]: 54.4%
- Activity [34]: inactive
- Activity [35]: Non-Toxic
- Activity [36]: Active
- Activity [37]: Dose-Dependent Effect
- Activity [38]: Active
- inhibition [2]: Active
- Activity [1]: Dose-Dependent Effect
- Tm [39]: 30 °C
- Activity [40]: Dose-Dependent Effect
- Activity [41]: 21.2%

SMILES: CN1CCN(c2ccc3c(c2)c2cc(N4CCN(C)CC4)ccc2c2nc4cc5c(cc4nc32)N(C)CCN5C)CC1
- inhibition [3]: inactive
- IC50 [1]: 3100 nM

Continued by falling IC50 [1], values first:

- inhibition [2]: inactive
- IC50 [1]: 2200 nM
SMILES: CN1CCN(c2ccc3c(c2)c2cc(N4CCN(C)CC4)ccc2c2nc4cc(Oc5ccccc5)ccc4nc32)CC1
- inhibition [3]: inactive

- inhibition [2]: Active
- IC50 [1]: 2100 nM
SMILES: CN1CCN(c2ccc3c(c2)c2cc(N4CCN(C)CC4)ccc2c2nc4cc(F)c(F)cc4nc32)CC1

- inhibition [2]: inactive
- IC50 [1]: 1900 nM
SMILES: CN1CCN(c2ccc(-c3nc4cc(F)c(F)cc4nc3-c3ccc(N4CCN(C)CC4)cc3)cc2)CC1
- inhibition [3]: Active

- inhibition [2]: Active
- IC50 [1]: 1100 nM
SMILES: CN1CCN(c2ccc3c(c2)c2cc(N4CCN(C)CC4)ccc2c2nc4ccccc4nc32)CC1
- inhibition [3]: Active
